Key:
closed head injury = test: Neurological severity score (NSS) recovery after closed head injury (CHI); assay type: in vivo, mice; conditions: 50 mg/kg i.p.
Procedure: This effect was sustained from 24 h to 21 days following injury as determined by the Mann-Whitney test (n=9-10 per group; * p<0.01; **p<0.001, as compared to vehicle treated, at the same day). (B) Mice were subjected to the object recognition test (Example 6) 3, 7, 14 and 21 days after CHI. The absolute time spent exploring each of the two objects was recorded and the % time calculated. At baseline (bl), when presented with two identical objects, exploration time of each object was about 50% in both groups. In the test (T) situation, after one of the objects was replaced by a novel one the % time spent exploring the new object was calculated.
At 1 h after CHI, the functional status of the mice was evaluated according to a set of 10 neurobehavioral tasks (neurological severity score, NSS) that tests reflexes, alertness coordination, and motor abilities. One point was awarded for absence of reflex or failure to perform a particular task. […] Mice were equally divided to vehicle\ IA groups according to their NSS scores. Only mice with NSS>4 at 1 h after injury were included in the study. […] Recovery (ΔNSSt) was defined as the difference between NSS1h and NSS measured at any later time point and was determined at several time points up to 21 days following CHI.

ROS generation = test: ROS production by zymosan-activated RAW 264.7 macrophages (chemiluminescence); assay type: cell-based, mice
Procedure: (A(1)) Representative Western Blot bands of Cox2 are shown with tubulin as reference. (A(2)) COX-2 levels were measured in RAW 264.7 cells incubated for 24 hrs. with LPS in the presence or in the absence of IA (60 μM/ml); **, p<0.001. (B) Murine peritoneal macrophages were activated by LPS (1 μg/ml for 24 hrs.) in absence of IA or in the presence of IA at indicated concentrations. NO generation was determined by measuring the nitrite accumulated in the supernatants; **, p<0.001. (C) Generation of ROS by RAW 264.7 macrophages (5×10^5 cells in 0.5 ml Hanks' balanced salt solution) was measured by chemiluminescence. Cells were pre-incubated with various doses of IA for 24 hrs before luminol (10 μl) and zymosan (30 μl) were added to the tubes; *, p<0.05; **, p<0.01; ***, p<0.001
ROS (Reactive Oxygen Species) Production by RAW 264.7 Macrophages. Raw 264.7 cells were scrapped, washed and resuspended in Hanks' balanced salt solution (without phenol red). For measurement of chemiluminescence, 0.5 ml of cell suspension (5×10^5 cells) was added to each luminometer tube, together with various doses of IA tested (dissolved in ethanol and further diluted with Hanks). […] 10 μl of luminol (Sigma, St. Louis, USA) and 30 μl of zymosan (Sigma, St. Louis, USA) were added to the tubes, and the chemiluminescence was measured immediately in a luminometer (Biolumate LB 95, Berhold, Wilbad, Germany).

[1] = test system: locomotion and cataleptic response; test: Open field test and ring test; assay type: in vivo, female Sabra mice; conditions: i.p., Sabra mice
Procedure: To study the functional effects of IA on the CNS, IA was assayed in a panel of standard behavioral assays in mice (female Sabra strain, 15-20 weeks old), namely: the elevated plus maze [Crawley, J. N. What's Wrong with my Mouse? Behavioral Phenotyping of Transgenic and Knockout Mice (Wiley-Liss, New York, 2000)], the Porsolt forced-swimming test [Petit-Demouliere, B., Chenu, F. & Bourin, M. Forced swimming test in mice: a review of antidepressant activity. Psychopharmacology 177, 245-255 (2005)], locomotion in the open field test and cataleptic response in a ring test [Fride, E. & Mechoulam, R. Pharmacological activity of the cannabinoid receptor agonist, anandamide, a brain constituent. Eur. J. Pharmacol. 231, 313-314 (1993). The elevated plus maze assay is based on the preference of mice for the closed arms of a maze, apparently due to fear of open spaces.

immobility = test: Porsolt forced swimming test; assay type: in vivo, female Sabra mice; conditions: recorded over 9 minutes, 50 mg/kg i.p.
[2] = test system: receptors known to be involved in psychoactivity; test: Interaction with receptors involved in psychoactivity
inflamed paw = test: Inflamed paw model (carrageenin) in mice; assay type: in vivo, Sabra female mice
Procedure: IA (50 mg/kg) or vehicle were injected i.p. to Sabra female mice (5 per group) 30 min before induction of the inflammatory stimulus. Hind paws were then injected with 50 μl of saline or λ-carrageenin (4%). Ensuing inflammatory swelling was measured by increase in foot volume in a plethysmometer. […] There were highly significant effects of treatment (F=11.7, df=3.64, P<0.001). *, different from IA +saline, P<0.05; **, ***, different from vehicle+saline at P<0.01, P<0.001 respectively; #, different from vehicle+carrageenin, P<0.05.
Inflamed Paw Model. Sabra female mice were used to assess the response to IA or vehicle in an in vivo model of inflammation. Drug or vehicle was administered 30 min before induction of the inflammatory stimulus. Mice (5 per group) were injected i.p. with vehicle (isopropanol:Emulphor:saline=1:1:18) or with vehicle containing IA (50 mg/kg, i.p). Emulphor (a polyethoxylated vegetable oil) is a commercial emulsifier. Hind paws were injected with 50 μl of saline (left or right alternatively) or λ-carrageenin (4%, right or left alternatively), using 26G needles. Ensuing inflammatory swelling was measured by increase in foot volume in a plethysmometer (Ugo-Basile, Italy). Paw volume as well as redness (as a measure of erythema) and licking (as a measure of pain) were assayed before carrageenin application and every 60 min until 4 hrs.

CC(=O)OC1CC/C(C)=C/CC/C(C)=C/CC2(C(C)C)CCC1(C)O2 (stereo not shown) [IA, incensole acetate]
ΔNSS (recovery of motor ability) (closed head injury; 24 h after injury, P=0.002 vs vehicle): 1.00±0.12 | ΔNSS at subsequent time points (closed head injury; up to 3 weeks post injury, vs vehicle): significantly higher | inhibition at 60 µM (ROS generation; Mus musculus, RAW264.7, at 60 μM, p=0.0021): ~45% | ROS generation, dose dependence (ROS generation; three concentrations, 24 hrs pre-incubation, ANOVA P<0.0001): significant dose-dependent inhibitory effect | immobility on a ring [1]: impaired immobility on a ring | open field behavior [1]: significant reduction of open field behavior | immobility in the Porsolt forced-swim test (immobility): significantly reduced the immobility | interaction with receptors known to be involved in psychoactivity [2]: does not interact | inflammation (inflamed paw volume) (inflamed paw; 50 mg/kg i.p. 30 min before carrageenin, 4 hrs period): significantly reduced inflammation | other inflammatory parameters, such as redness and pain (inflamed paw; 50 mg/kg i.p., data not shown): significantly reduced
